Reference: US9034929B2, “Aminoalcohol and biocide compositions for aqueous based systems” (ANGUS Chemical Company, priority 2007, dated 2015)

Key:
[1] = system: bacteria of a mixed bacterial/fungal inoculum isolated from spoiled metalworking fluids; assay: ASTM Practice E 2275-03 microbial challenge test of diluted metalworking fluids, bacterial counts; format: cell-based; conditions: for bacterial growth / resistance to bacterial attack: 8% amino alcohol fluid with benzisothiazolinone (BIT), 0.012% active in diluted fluid, FIG. 5
Description: (§1) This compound was formulated at 8% by weight into a generic semi-synthetic metalworking fluid concentrate as described in Table 1. Identical formulations were prepared except substituting conventional amino alcohol compounds for 3A4O. The conventional amino alcohols were 2-amino-2-methyl-1-propanol (AMP) and n-butylethanolamine (BEA). An identical set of fluid concentrates was prepared including 1.5% of a 77% aqueous solution of 1,3,5-tris(2-hydroxyethyl)-s-triazine preservative, allowing us to evaluate fluids with and without preservative. The fluid concentrates were diluted at a rate of 20 parts Chicago tap water to 1 part fluid concentrate (by weight); the active amino alcohol concentration at dilution was therefore approximately 0.4% and the active preservative dosage (in the preserved set) was approximately 0.058%. These fluids were subjected to microbial challenge testing by ASTM Practice E 2275-03. In this method fluids are inoculated initially and then weekly with a mixed bacterial/fungal inoculum isolated from spoiled metalworking fluids. The bacterial and fungal counts are measured weekly using a serial dilution plate count method, and reported as colony forming units per milliliter (CFU/mL). The lower the CFU/mL the better the microbial control, and the longer the predicted service life of the fluid. The microbial results are described in FIGS. 1 & 2 (unpreserved) and FIGS. 3 & 4 (preserved with triazine).
(§2) This material was formulated into the same metalworking fluid concentrate described in Example A, at an 8% concentration. Identical fluids were prepared using 8% 2-amino-2-methyl-1-propanol (AMP) and 8% dicyclohexylamine (DCHA). The preservative benzisothiazolinone (BIOBAN BIT 20 DPG from Dow Biocides) was added to each fluid concentrate at 1.2%, giving an active concentration of 0.24% in the fluid concentrates and 0.012% in the use diluted fluids. The diluted fluids were subjected to the same microbial testing protocol described in Example A, and the results are described in FIGS. 5 & 6.
(§3) In order to understand the influence of use level of the amino alcohols of the invention, we prepared similar semi-synthetic fluid concentrates as described previously but using 4% amino alcohol to give 2000 ppm at use dilution; the difference in the formulation was made up with water. The fluid concentrates were preserved with the same level of triazine-77% described previously. These fluids were diluted and subjected to the same bacterial/fungal challenge tests described in Examples A and B; the data are found in FIGS. 8 & 9.
FIGS. 10-17 provide additional comparisons between 3-amino-4-octanol (3A4O), an aminoalcohol of the invention, and the non-invention aminoalcohol compounds 2-amino-2-methyl-1-propanol (AMP) and n-butylethanolamine (BEA), in conjunction with various biocides. In particular, FIGS. 10 and 11 bacterial and fungal efficacy comparisons of the aminoalcohols with BIOBAN P-1487 (a combination of 4-(2-nitrobutyl)-morpholine with 4,4′-(2-ethyl-2-nitrotrimethylene)dimorpholine). This biocide was added to give 750 ppm in the diluted fluid. The amine dosage was adjusted to give 4000 ppm at dilution. FIGS. 12 and 13 show bacterial and fungal efficacies of the aminoalcohols in the presence of a triazine/IPBC biocide blend. Triazine-78% was added at 750 ppm based on diluted fluid and iodopropynylbutylcarbamate (IPBC) added at 300 ppm active at dilution. The amine dosage was adjusted to give 3000 ppm at dilution. FIGS. 14 and 15 show bacterial and fungal efficacy of the compounds with Benzisothiazolinone (BIT). BIT was added at 120 ppm active based on diluted fluid and iodopropynylbutylcarbamate (IPBC) added at 300 ppm active at dilution. The amine dosage was adjusted to give 3000 ppm at dilution. FIGS. 16 and 17 show bacterial and fungal efficacy of the aminoalcohols with a chloromethylisothiazolinone/methylisothiazolinone (CMIT/MIT) blend. […]

[2] = system: fungi of a mixed bacterial/fungal inoculum isolated from spoiled metalworking fluids; assay: ASTM Practice E 2275-03 microbial challenge test of diluted metalworking fluids, fungal counts; format: cell-based
Description: as §1, §2
as §3, with “9. […]” for “9.”

[3] = system: mycobacterium immunogenum (ATTCC strain 700505); assay: ASTM microbial challenge test with mycobacterial inoculum; format: cell-based; conditions: 8% amino alcohol fluid with 1.5% triazine preservative (77% active) in concentrate; FIG. 7
[4] = system: pseudomonas aeroginosa; conditions: stated as known; cited from earlier work
[5] = system: fungi of a mixed bacterial/fungal inoculum isolated from spoiled metalworking fluids; conditions: at the dosage used (about 0.058% active at dilution); cited from earlier work

## CCCCC(O)C(C)N (stereo not shown) [2A3H, 2-amino-3-heptanol]
[1]
  bacterial growth / resistance to bacterial attack: more resistant to bacterial attack than the others
[1]; unpreserved semi-synthetic MWF, 8% amino alcohol in concentrate (about 0.4% at dilution), weekly inoculation, FIG. 1
  bacterial growth (plate count, CFU/mL): does not significantly inhibit bacterial or fungal growth
[2]; 8% amino alcohol fluid with benzisothiazolinone (BIT), 0.012% active in diluted fluid, FIG. 6
  fungal growth / resistance to fungal attack: resists attack better than that with AMP, and is comparable in resistance to the fluid with DCHA
[2]; unpreserved semi-synthetic MWF, 8% amino alcohol in concentrate (about 0.4% at dilution), weekly inoculation, FIG. 2
  fungal growth (plate count, CFU/mL): does not significantly inhibit bacterial or fungal growth

## CCCCC(O)C(N)CC (stereo not shown) [3A4O, 3-amino-4-octanol]
[1]; 8% amino alcohol fluid preserved with triazine (about 0.058% active at dilution), FIG. 3
  bacterial growth (plate count, CFU/mL): unexpected reduction in growth rate over the full course of the test
[1]; amine 3000-4000 ppm at dilution with BIOBAN P-1487, triazine/IPBC, BIT or CMIT/MIT, FIGS. 10, 12, 14, 16
  enhancement of biocide efficacy against bacteria: increased enhancement of biocide efficacy
[2]; 8% amino alcohol fluid preserved with triazine (about 0.058% active at dilution), FIG. 4
  fungal growth (plate count, CFU/mL): unexpected reduction in growth rate over the full course of the test
[2]; amine 3000-4000 ppm at dilution with BIOBAN P-1487, triazine/IPBC, BIT or CMIT/MIT, FIGS. 11, 13, 15, 17
  enhancement of biocide efficacy against fungi: greater enhancement against fungi

## CC(C)(N)CO [AMP, 2-amino-2-methyl-1-propanol, reference compound]
[1]
  bacterial growth / resistance to bacterial attack: relatively poor performance against bacteria
[3]
  mycobacterial growth / resistance: virtually no inhibition of activity

## O=c1[nH]sc2ccccc12 [BIT, benzisothiazolinone]
[4]
  efficacy against pseudomonas aeroginosa: not to be effective

## C1CCC(NC2CCCCC2)CC1 [DCHA, dicyclohexylamine, reference compound]
[1]
  bacterial growth / resistance to bacterial attack: the opposite is true

## OCCN1CN(CCO)CN(CCO)C1 [triazine preservative, 1,3,5-tris(2-hydroxyethyl)-s-triazine]
[5]
  efficacy of the preservative alone against fungi: not effective against fungi
